Laboratory results from BigSolDB 2.1.

CN(CCOc1ccc(CC2SC(=O)NC2=O)cc1)c1ccccn1 (configuration not stated)
solubility (mole fraction)
Details | in acetone | in acetonitrile | in ethanol | in ethyl acetate | in isopropanol | in methanol | in methyl acetate | in n-butanol | in n-butyl acetate | in n-propanol
283.15 K | 0.00177 | 0.000267 | 0.000245 | 0.00123 | 0.00013 | 0.000139 | 0.00123 | 0.000341 | 0.000926 | 0.000276
293.15 K | 0.00278 | 0.000453 | 0.000341 | 0.00205 | 0.000173 | – | 0.00205 | 0.000371 | 0.00117 | 0.00028
303.15 K | 0.00455 | 0.000744 | 0.000458 | 0.003 | 0.000282 | 0.000444 | 0.00335 | 0.00042 | 0.00235 | 0.000323
313.15 K | 0.00691 | 0.00126 | 0.00067 | 0.00441 | 0.000529 | 0.000745 | 0.0052 | 0.00063 | 0.00355 | 0.000741
323.15 K | 0.00992 | – | 0.00124 | 0.00649 | 0.000992 | 0.00132 | 0.00795 | 0.00147 | 0.00505 | 0.00133
333.15 K | – | 0.00352 | 0.00244 | 0.0118 | 0.00218 | 0.00235 | 0.0126 | 0.00293 | 0.0092 | 0.0029
